Test results as given in ChEMBL document CHEMBL5346922, “Discovery of phenylcarbamoyl xanthone derivatives as potent neuroprotective agents for treating ischemic stroke” (Eur J Med Chem, 2023).
Activity calls are given as the source filed them. No cut-off for these calls is given here.

Experiments:
[1] = tested on: Rattus norvegicus; assay: Neuroprotective activity against middle cerebral artery occlusion induced ischemia stroke Sprague-Dawley rat model assessed as decrease in cerebral infarction area at 60 mg/kg, ip measured after 24 hrs by TTC staining based microscopic assay (reference value: 15.91 +/- 9.06 %); assay type: functional; design: scale not given: the % may be the effect or the level left
[2] = tested on: Rattus norvegicus; assay: Neuroprotective activity against middle cerebral artery occlusion induced ischemia stroke Sprague-Dawley rat model assessed as decrease in brain water content at 60 mg/kg, ip measured after 24 hrs (reference value: 83.17 +/- 2.40%); assay type: functional; design: scale not given: the % may be the effect or the level left
[3] = Acute toxicity in Sprague-Dawley rat assessed as animal death at 4000 mg/kg, po measured for 24 hrs; assay type: organism-based; details: in vivo
[4] = tested on: PC-12; assay: Neuroprotective activity against glutamate induced excitotoxicity in rat PC12 cells assessed as cell survival at 20 uM pretreated with glutamate for 24 hrs followed by compound addition and measured after 24 hrs; assay type: functional; details: read-out: Survival
[5] = tested on: Rattus norvegicus; assay: Neuroprotective activity against middle cerebral artery occlusion induced ischemia stroke Sprague-Dawley rat model assessed as increase in serum SOD level at 20 to 60 mg/kg, ip measured after 24 hrs; assay type: functional, organism-based; details: dose 20-60 mg/kg
[6] = tested on: PC-12; assay: Neuroprotective activity against H2O2-induced oxidative damage in rat PC12 cells assessed as increase in cell survival at 20 uM pretreated with H2O2 for 24 hrs followed by compound addition and measured after 24 hrs; assay type: functional; details: read-out: Survival
[7] = tested on: PC-12; assay: Neuroprotective activity in rat PC12 cells assessed as protection against glutamate induced excitotoxicity at 20 uM pretreated with glutamate for 24 hrs followed by compound addition and measured after 24 hrs; assay type: functional
[8] = tested on: PC-12; assay: Cytotoxicity against rat PC12 cells assessed as reduction in cell viability incubated for 24 hrs by MTT assay; assay type: functional, cell-based; details: PC-12, 24 h
[9] = tested on: PC-12; assay: Neuroprotective activity against H2O2-induced oxidative damage in rat PC12 cells at 20 uM pretreated with H2O2 for 24 hrs followed by compound addition and measured after 24 hrs; assay type: functional
[10] = tested on: PC-12; assay: Neuroprotective activity against H2O2-induced oxidative damage in rat PC12 cells pretreated with H2O2 for 24 hrs followed by compound addition and measured after 24 hrs; assay type: functional, cell-based
[11] = tested on: Rattus norvegicus; assay: Neuroprotective activity against middle cerebral artery occlusion induced ischemia stroke Sprague-Dawley rat model assessed as […] in serum MDA level at 20 to 60 mg/kg, ip measured after 24 hrs; assay type: functional, organism-based; details: dose 20-60 mg/kg
[12] = tested on: Rattus norvegicus; assay: Neuroprotective activity against middle cerebral artery occlusion induced ischemia stroke Sprague-Dawley rat model assessed as Zea-longa score at 60 mg/kg, po measured after 24 hrs (reference value: 2.33 +/- 0.47); assay type: functional
[13] = tested on: PC-12; assay: Cytotoxicity against rat PC12 cells assessed as reduction in cell viability at 80 uM incubated for 24 hrs by MTT assay; assay type: functional
[14] = tested on: PC-12; assay: Neuroprotective activity against glutamate induced excitotoxicity in rat PC12 cells pretreated with glutamate for 24 hrs followed by compound addition and measured after 24 hrs; assay type: functional, cell-based
[15] = tested on: Rattus norvegicus; assay: Neuroprotective activity against middle cerebral artery occlusion induced ischemia stroke Sprague-Dawley rat model assessed as reduction in TNF-alpha level in serum at 20 to 60 mg/kg, ip measured after 24 hrs by ELISA analysis; assay type: functional, organism-based; details: dose 20-60 mg/kg
[16] = tested on: Rattus norvegicus; assay: Neuroprotective activity against middle cerebral artery occlusion induced ischemia stroke Sprague-Dawley rat model assessed as reduction in IL-1beta level in serum at 20 to 60 mg/kg, ip measured after 24 hrs by ELISA analysis; assay type: functional, organism-based; details: dose 20-60 mg/kg

For `COc1c(OC(=O)N(C)c2ccccc2)cc2oc3cc4c(c(O)c3c(=O)c2c1CC=C(C)C)C=CC(C)(C)O4`, the Activity [1] was 1.78%, the Activity [2] was 77.41% and the Activity [3] was “Non-Toxic”. For the same compound, the viability at 20 µM [4] was 68.6%, the Activity [5] was “Active” and the viability at 20 µM [6] was 78.9%. The Activity [7] was 54.79%, the IC50 [8] was 3.3 µM and the Activity [9] was 52.62%. For the same compound, the EC50 [10] was 19.3 µM, the Activity [11] was “Active” and the Activity [12] was 1.67. The Activity [13] was “inactive”, the EC50 [14] was 16.1 µM and the Activity [15] was “Active”. The Activity [16] was “Active”.
